Where “and” joins values, the source holds several entries; their conditions need not be identical. Equal values may be shown once.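 Compound exposure: 48 hours, 5 concentrations, 96-well plates. At the GI50, growth is halved. The concentration for full growth arrest is given as TGI.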
Key:
Experiment in all cases: NCI anticancer screen, dose series, 48 h
[1] = test system: U251 CNS
[2] = test system: PC-3 prostate
[3] = test system: MCF7 breast
[4] = test system: A498 renal
[5] = test system: OVCAR-3 ovarian
[6] = test system: EKVX NSCLC
[7] = test system: SW-620 colon
[8] = test system: BT-549 breast
[9] = test system: HCT-15 colon
[10] = test system: MALME-3M melanoma

SMILES	GI50 [1] [µM]	TGI [1] [µM]	GI50 [2] [µM]	TGI [2] [µM]	GI50 [3] [µM]	TGI [3] [µM]	GI50 [4] [µM]	TGI [4]	GI50 [5] [µM]	TGI [5]	GI50 [6] [µM]	TGI [6]	GI50 [7] [µM]	TGI [7]	GI50 [8] [µM]	TGI [8] [µM]	GI50 [9] [µM]	TGI [9] [µM]	GI50 [10] [µM]	TGI [10]
O=C(/C=C/c1ccco1)c1cccc(Nc2nc(Nc3ccccc3)nc(Nc3ccccc3)n2)c1	16	> 100	5.13	> 100	1.92	> 52.4	0.444	1.77 µM	2.83	27.1 µM	9.82	> 100 µM	18.2	> 100 µM	19	> 82.9	5.12	> 100	> 66.7	> 100 µM
CC(=O)O[C@H]1CC[C@@]2(C)[C@@H](CC[C@@H]3[C@@H]2CC(=O)[C@@]2(C)[C@H]3C[C@@H]3CC(C)=CC(=O)[C@@H]32)C1		> 100		> 100		> 100		> 100 µM		> 100 µM		> 100 µM		> 100 µM		71.2		> 100		> 100 µM
COc1nc(C(Cl)(Cl)Cl)c(Cl)c(OC)c1Cl		69.9		73.6		66.8	> 35.9	> 55.7 µM and 96.2 µM	> 43.4	> 61.1 µM and 72.6 µM	> 55.4	> 94.7 µM and 78.3 µM	> 49.3	> 74.8 µM and 75 µM		71.3		75.6	> 45.4	> 65.8 µM and 64.4 µM
CC/C(=C(/c1ccc(Cl)cc1)c1ccc(OCCCN(C)C)cc1)c1ccc(OC)cc1	1.66	5.4	1.12	2.71	1.05	5.89	5.5	12.1 µM	3.27	10.5 µM	5.76	12.6 µM	1.16	2.96 µM	1.13	2.89	1.44	5.08	1.2	2.67 µM
CN(Cc1cccc(Cl)c1)c1ccc(CO)c(Cl)c1	4.21	19.2	18	> 54.3	1.55	15.8	0.041	0.169 µM	3.46	14 µM	18.4	52.1 µM	5.93	> 42.9 µM	14.6	34.5	16.1	> 76.7	18.7	42.3 µM
COc1cc(-c2nc3cc(Cl)c(Cl)cc3[nH]2)ccc1OCC(=O)N=Nc1c(O)[nH]c2ccccc12	0.244	0.681	0.533	2.07	0.201	0.479	1.46	3.37 µM	0.409	1.43 µM	2.02	21.7 µM	0.355	1.43 µM	0.822	2.29		> 56.5	0.226	0.683 µM
O=C1/C=C/[C@@H](O)[C@@H]2C[C@@H](O)C[C@H]2/C=C/CCCCO1	0.408	> 100	0.417	> 100	0.327	1.88	0.166	1.92 µM	0.202	0.468 µM	0.519	> 21.4 µM	0.247	0.752 µM	0.607	> 100	0.364		0.321	3.24 µM
COc1ccccc1NC(=O)C(=O)C(C#N)CC(C)(C)C=O (stereo unspecified)		> 100		> 100		> 100		> 100 µM		> 100 µM		> 100 µM		> 100 µM		> 100		> 100		> 100 µM
COc1cc(/C=C/C(=O)c2ccc(SC)cc2)cc(OC)c1OC	3.27	12	14.2	95.3	5.22	24.1	0.936	17.1 µM	10.9	23.8 µM	14.9	29.4 µM	6.89	21.6 µM	10.1	24.6	3.6	14.4	6.31	26.1 µM
COc1ccc(/C=N/C2=C(C#N)C(c3ccccc3)c3ccc4ccccc4c3O2)cc1 (stereo unspecified)	0.457	> 100	0.393	> 100	0.425	> 100	0.213	0.785 µM	0.343	> 100 µM		> 100 µM	0.316	> 100 µM	0.793	> 100	0.509	> 100		> 100 µM
CC(=O)SC(C[N+](=O)[O-])c1ccccc1 (stereo unspecified)		13.1		25.7		4.35		20.7 µM		20.7 µM		16 µM		5.6 µM		5.19		4.85		35.9 µM
